Assay results reported in paper PMC12516728, “Harnessing the Estradienone Scaffold to Develop Dual GPBAR1 and LIFR Modulators for Liver Fibrosis” (Journal of Medicinal Chemistry, 2025).

biological target: T1, LIF-LIFR interaction (recombinant human LIFR His-Tag / biotinylated LIF) (Homo sapiens, UniProt P42702); assay: Cell-free AlphaScreen assay of LIF-LIFR interaction; type: binding; conditions: not given
T1 construct: purchased Sino Biological (LIFR); R&D Systems (LIF)
T1 sequence (P42702 45-833 limits assumed): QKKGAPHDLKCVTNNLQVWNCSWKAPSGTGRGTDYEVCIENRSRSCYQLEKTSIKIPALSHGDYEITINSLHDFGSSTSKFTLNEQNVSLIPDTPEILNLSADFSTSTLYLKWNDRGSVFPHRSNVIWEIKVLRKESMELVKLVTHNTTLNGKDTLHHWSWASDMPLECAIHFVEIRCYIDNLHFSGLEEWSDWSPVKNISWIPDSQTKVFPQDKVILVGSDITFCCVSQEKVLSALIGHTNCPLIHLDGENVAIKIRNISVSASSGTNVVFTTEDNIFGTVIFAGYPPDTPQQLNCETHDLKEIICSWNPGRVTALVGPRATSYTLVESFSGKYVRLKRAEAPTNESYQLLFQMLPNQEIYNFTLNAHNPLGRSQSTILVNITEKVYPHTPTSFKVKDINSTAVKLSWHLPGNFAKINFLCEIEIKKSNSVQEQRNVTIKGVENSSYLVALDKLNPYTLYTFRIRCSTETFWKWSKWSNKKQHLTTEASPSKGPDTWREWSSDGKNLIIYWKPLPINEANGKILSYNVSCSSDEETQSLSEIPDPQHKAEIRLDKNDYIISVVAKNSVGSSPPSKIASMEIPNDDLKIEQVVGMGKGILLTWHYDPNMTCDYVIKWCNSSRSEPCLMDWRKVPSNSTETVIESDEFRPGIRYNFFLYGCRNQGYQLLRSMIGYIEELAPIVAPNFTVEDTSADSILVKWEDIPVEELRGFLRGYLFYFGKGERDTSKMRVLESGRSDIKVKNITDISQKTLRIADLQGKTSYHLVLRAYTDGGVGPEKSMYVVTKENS
Experimental: Recombinant human LIFR (His-Tag) and LIF (biotinylated) were purchased from Sino Biologicals (Sino Biological Europe GmbH, Dusseldorf, Germany) and R&D Systems (Abingdon, UK), respectively, and both were reconstituted as required by the manufacturer. Inhibition of LIFR/LIF binding was measured by AlphaScreen, in white, low-volume, 384-well AlphaPlates (PerkinElmer, Waltham, MA, USA) using a final volume of 15 μL and an assay buffer containing 25 mM Hepes (pH 7.4), 100 mM NaCl, and 0.005% Kathon. The concentration of DMSO in each well was maintained at 5% v/v. […] Then, streptavidin donor beads were added (final concentration 20 ng/μL), and the plate was incubated in the dark for 2 h and then read in an EnSpire Alpha multimode plate reader (PerkinElmer, Waltham, MA, USA). […] Each concentration was tested in triplicate (N = 3). When present, outliers were removed, resulting in N = 2. Data, reported as averaged intensity values ± standard deviation and N, were exploited to fit the curves through GraphPad Prism 8.

Structure (SMILES)	IC50 [µM]
C[C@]12C[C@H](c3ccccc3)C3=C4CCC(=O)C=C4CC[C@H]3[C@@H]1CCC2=O [Compound 1c, 11β-Phenylestra-4,9-dien-3,17-dione]	26.9 ± 3.12
CN(C)c1ccc([C@H]2C[C@]3(C)C(=O)CC[C@H]3[C@@H]3CCC4=CC(=O)CCC4=C32)cc1 [Compound 1b]	0.535 ± 0.209
C[C@]12C[C@H](c3ccc(C4CC4)cc3)C3=C4CCC(=O)C=C4CC[C@H]3[C@@H]1CCC2=O [Compound 1g, 11β-(4-Cyclopropylphenyl)-estra-4,9-dien-3,17-dione]	9.42 ± 2.32
C[C@]12C[C@H](c3ccc(-c4cccc(C(=O)O)c4)cc3)C3=C4CCC(=O)C=C4CC[C@H]3[C@@H]1CCC2=O [Compound 2t]	24.8 ± 2.8
C[C@]12C[C@H](c3ccc(-c4ccc(Br)nc4)cc3)C3=C4CCC(=O)C=C4CC[C@H]3[C@@H]1CCC2=O [Compound 2d]	5.54 ± 1.39

same assay, conditions: 10 μM; LIF-LIFR signal without compound set as 100% interaction; mean ± SD; read-out: % LIFR inhibition (10 μM)

inhibition at 10 µM [%]	Structure (SMILES)
70.5 ± 3.7	CC#C[C@]1(O)CC[C@H]2[C@@H]3CCC4=CC(=O)CCC4=C3[C@@H](c3ccc(N(C)C)cc3)C[C@@]21C [Mifepristone, mifepristone, reference compound]

same assay, conditions: 50 μM; LIF-LIFR signal without compound set as 100% interaction; mean ± SD; read-out: % LIFR inhibition (50 μM)

inhibition at 50 µM [%]	Structure (SMILES)
94.6 ± 7.3	CC#C[C@]1(O)CC[C@H]2[C@@H]3CCC4=CC(=O)CCC4=C3[C@@H](c3ccc(N(C)C)cc3)C[C@@]21C [Mifepristone, mifepristone, reference compound]

same assay, conditions: inhibition of LIF-LIFR interaction; ± SD; read-out: IC50

IC50 [µM]	Structure (SMILES)
0.366 ± 0.063	CC#C[C@]1(O)CC[C@H]2[C@@H]3CCC4=CC(=O)CCC4=C3[C@@H](c3ccc(N(C)C)cc3)C[C@@]21C [Mifepristone, mifepristone, reference compound]

same assay, conditions: read-out: % LIFR inhibition (10 μM)

Structure (SMILES)	inhibition at 10 µM [%]
C[C@]12C[C@H](c3ccccc3)C3=C4CCC(=O)C=C4CC[C@H]3[C@@H]1CCC2=O [Compound 1c, 11β-Phenylestra-4,9-dien-3,17-dione]	34.3 ± 11.2
CN(C)c1ccc([C@H]2C[C@]3(C)C(=O)CC[C@H]3[C@@H]3CCC4=CC(=O)CCC4=C32)cc1 [Compound 1b]	60 ± 14.7
C[C@]12C[C@H](c3ccc(C4CC4)cc3)C3=C4CCC(=O)C=C4CC[C@H]3[C@@H]1CCC2=O [Compound 1g, 11β-(4-Cyclopropylphenyl)-estra-4,9-dien-3,17-dione]	45.1 ± 1.9
C[C@]12C[C@H](c3ccc(-c4cccc(C(=O)O)c4)cc3)C3=C4CCC(=O)C=C4CC[C@H]3[C@@H]1CCC2=O [Compound 2t]	22.8 ± 5.1
C[C@]12C[C@H](c3ccc(-c4ccc(Br)nc4)cc3)C3=C4CCC(=O)C=C4CC[C@H]3[C@@H]1CCC2=O [Compound 2d]	42.1 ± 2.3

same assay, conditions: read-out: % LIFR inhibition (50 μM)

Structure (SMILES)	inhibition at 50 µM [%]
C[C@]12C[C@H](c3ccccc3)C3=C4CCC(=O)C=C4CC[C@H]3[C@@H]1CCC2=O [Compound 1c, 11β-Phenylestra-4,9-dien-3,17-dione]	40.5 ± 4.18
CN(C)c1ccc([C@H]2C[C@]3(C)C(=O)CC[C@H]3[C@@H]3CCC4=CC(=O)CCC4=C32)cc1 [Compound 1b]	84.3 ± 1.4
C[C@]12C[C@H](c3ccc(C4CC4)cc3)C3=C4CCC(=O)C=C4CC[C@H]3[C@@H]1CCC2=O [Compound 1g, 11β-(4-Cyclopropylphenyl)-estra-4,9-dien-3,17-dione]	62.1 ± 6.1
C[C@]12C[C@H](c3ccc(-c4cccc(C(=O)O)c4)cc3)C3=C4CCC(=O)C=C4CC[C@H]3[C@@H]1CCC2=O [Compound 2t]	62.3 ± 7.3
C[C@]12C[C@H](c3ccc(-c4ccc(Br)nc4)cc3)C3=C4CCC(=O)C=C4CC[C@H]3[C@@H]1CCC2=O [Compound 2d]	64.4 ± 7.5

biological target: T2, LIFR (Homo sapiens, UniProt P42702); assay: Luciferase reporter (transactivation) assay on HepG2 cells transfected with LIFR; type: cell-based; conditions: relative to LIF as 100%, mean ± SD
T2 construct: expressed in transfected cells; host or cells: HepG2
T2 sequence (P42702 45-1097): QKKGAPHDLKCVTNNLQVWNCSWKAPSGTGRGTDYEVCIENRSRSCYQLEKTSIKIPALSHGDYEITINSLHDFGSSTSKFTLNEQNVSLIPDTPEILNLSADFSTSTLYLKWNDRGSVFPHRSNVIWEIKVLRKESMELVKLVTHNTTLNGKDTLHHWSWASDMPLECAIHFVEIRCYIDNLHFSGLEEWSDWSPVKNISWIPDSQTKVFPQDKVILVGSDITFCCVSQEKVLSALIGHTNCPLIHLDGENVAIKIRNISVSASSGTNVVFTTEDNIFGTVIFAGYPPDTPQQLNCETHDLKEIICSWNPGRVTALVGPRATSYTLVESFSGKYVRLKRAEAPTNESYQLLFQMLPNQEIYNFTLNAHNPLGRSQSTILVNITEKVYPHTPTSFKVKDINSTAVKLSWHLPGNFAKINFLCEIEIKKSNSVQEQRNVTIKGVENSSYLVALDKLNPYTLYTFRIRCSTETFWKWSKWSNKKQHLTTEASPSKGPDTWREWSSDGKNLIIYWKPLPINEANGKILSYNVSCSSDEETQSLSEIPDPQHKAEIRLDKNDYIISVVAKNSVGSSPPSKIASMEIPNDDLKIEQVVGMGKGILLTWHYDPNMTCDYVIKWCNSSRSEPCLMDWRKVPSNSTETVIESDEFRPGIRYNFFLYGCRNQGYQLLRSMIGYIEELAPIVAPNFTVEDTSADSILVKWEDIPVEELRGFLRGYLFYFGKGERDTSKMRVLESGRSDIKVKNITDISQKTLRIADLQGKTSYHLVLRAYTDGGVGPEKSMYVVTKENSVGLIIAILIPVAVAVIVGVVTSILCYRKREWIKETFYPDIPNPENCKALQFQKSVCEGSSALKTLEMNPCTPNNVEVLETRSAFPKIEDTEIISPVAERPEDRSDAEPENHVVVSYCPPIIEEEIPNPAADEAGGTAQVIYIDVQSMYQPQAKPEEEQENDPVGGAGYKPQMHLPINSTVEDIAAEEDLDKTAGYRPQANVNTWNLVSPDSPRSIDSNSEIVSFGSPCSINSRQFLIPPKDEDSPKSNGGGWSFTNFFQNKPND
Experimental: (§1) Hek293T cells, obtained from ATCC (Manassas, VA, USA), were cultured in a D-MEM medium (Sigma-Merk Life Science S.r.l., Milan, Italy) enriched with 10% fetal bovine serum, 1% L-glutamine, and 1% penicillin/streptomycin. HEPG2 cells, also from ATCC, were grown in an MEM medium (Euroclone, reference ECB2071L) supplemented with 10% fetal bovine serum (Euroclone, reference ECS5000L), 1% L-glutamine (Euroclone, reference ECB3000D), and 1% penicillin/streptomycin (Euroclone, reference ECB3001D). All cultures were maintained in a humidified environment with 5% CO2 at 37 °C. Additionally, it was confirmed that the cells were free from Mycoplasma contamination, as verified using the Mycoplasma PCR Detection Kit (Aurogene, reference G238).
(§2) The luciferase reporter gene assay protocol takes place over four days. On the first day, HEPG2 or HEK293T cells are seeded in a 24-well plate at a density of 7.5 × 10^4 cells/well for HEPG2 or 2.5 × 10^4 cells/well for HEK293T. On the second day, cells are transiently transfected, preparing a separate mix for each receptor. To assess the phosphorylation of STAT3 signaling, HEPG2 cells were transfected with 200 ng of the reporter vector containing the Pgl4.47 response element, along with 100 ng each of LIFR, IL6ST (gp130), and pGL4.70 (Promega, Madison, WI), a vector encoding the human Renilla gene. The following day, the cells were stimulated with 10 ng/mL LIF, either alone or in combination with 2o at concentrations of 0.1, 1, 10, 25, and 50 μM, to generate a dose–response curve. For GPBAR1 agonism, HEK293T cells were transfected with 200 ng of the reporter vector pG29-CRE-LUC, 150 ng of pcmvsport-hTGR5, and 150 ng of pGL4.70, the human Renilla gene. The following day, cells were stimulated with 10 μM TLCA alone as a positive control and compound 2o at concentrations of 1 and 10 nM, as well as 0.1, 1, 2.5, 5, 10, 20, and 30 μM, to generate a dose–response curve. On the final day, cellular lysates were analyzed for luciferase and Renilla activities using the Dual-Luciferase Reporter Assay System (Promega, Madison, WI). pLuminescence was measured with a Glomax 20/20 luminometer (Promega, Madison, WI), and luciferase activities were normalized to Renilla activities.

Structure (SMILES)	inhibition at 10 µM [%]
C[C@]12C[C@H](c3ccccc3)C3=C4CCC(=O)C=C4CC[C@H]3[C@@H]1CCC2=O [Compound 1c, 11β-Phenylestra-4,9-dien-3,17-dione]	76.8 ± 6.7
CN(C)c1ccc([C@H]2C[C@]3(C)C(=O)CC[C@H]3[C@@H]3CCC4=CC(=O)CCC4=C32)cc1 [Compound 1b]	104 ± 2.5
C[C@]12C[C@H](c3ccc(C4CC4)cc3)C3=C4CCC(=O)C=C4CC[C@H]3[C@@H]1CCC2=O [Compound 1g, 11β-(4-Cyclopropylphenyl)-estra-4,9-dien-3,17-dione]	51.1 ± 1.4
C[C@]12C[C@H](c3ccc(-c4cccc(C(=O)O)c4)cc3)C3=C4CCC(=O)C=C4CC[C@H]3[C@@H]1CCC2=O [Compound 2t]	38.7 ± 0.6
C[C@]12C[C@H](c3ccc(-c4ccc(Br)nc4)cc3)C3=C4CCC(=O)C=C4CC[C@H]3[C@@H]1CCC2=O [Compound 2d]	88.8 ± 3.4

biological target: T3, GPBAR1 (Homo sapiens, UniProt Q8TDU6); assay: Luciferase reporter (transactivation) assay on HEK293T cells transfected with GPBAR1; type: cell-based; conditions: HEK-293T, relative to TLCA (10 μM) as 100%, mean ± SD, na = not active, read-out: GPBAR1 eff % (10 μM)
T3 construct: expressed in transfected cells; host or cells: HEK293T
T3 sequence (Q8TDU6 1-330): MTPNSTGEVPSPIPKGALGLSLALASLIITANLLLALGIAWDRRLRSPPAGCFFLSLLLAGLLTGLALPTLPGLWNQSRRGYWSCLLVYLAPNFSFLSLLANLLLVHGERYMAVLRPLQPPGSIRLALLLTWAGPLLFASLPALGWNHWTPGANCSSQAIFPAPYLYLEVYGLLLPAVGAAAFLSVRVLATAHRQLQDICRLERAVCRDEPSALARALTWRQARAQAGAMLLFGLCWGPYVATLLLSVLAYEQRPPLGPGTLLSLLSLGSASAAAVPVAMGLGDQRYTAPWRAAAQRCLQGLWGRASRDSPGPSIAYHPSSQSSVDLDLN
Experimental: as §1, §2

Structure (SMILES)	Emax at 10 µM [%]
C[C@]12C[C@H](c3ccccc3)C3=C4CCC(=O)C=C4CC[C@H]3[C@@H]1CCC2=O [Compound 1c, 11β-Phenylestra-4,9-dien-3,17-dione]	35 ± 1.5
CN(C)c1ccc([C@H]2C[C@]3(C)C(=O)CC[C@H]3[C@@H]3CCC4=CC(=O)CCC4=C32)cc1 [Compound 1b]	21.7 ± 0.3
C[C@]12C[C@H](c3ccc(C4CC4)cc3)C3=C4CCC(=O)C=C4CC[C@H]3[C@@H]1CCC2=O [Compound 1g, 11β-(4-Cyclopropylphenyl)-estra-4,9-dien-3,17-dione]	16.5 ± 1.5
C[C@]12C[C@H](c3ccc(-c4cccc(C(=O)O)c4)cc3)C3=C4CCC(=O)C=C4CC[C@H]3[C@@H]1CCC2=O [Compound 2t]	20.4 ± 1.4
